According to ChEMBL document CHEMBL1201862, “PubChem BioAssay data set” (2004):
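48-hour exposure; five concentrations; linearly interpolated endpoints. GI50 is the concentration that inhibits growth by half.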 Active and inactive are the calls of the source. No stated cut-off is given here; in the data, active = GI50 up to about 1.1 µM and inactive = higher.

Experiments:
Assay in all cases: NCI-60 cell line screen, 48 h
A498 = system: A498
A549 = system: A549
T47D = system: T47D
LOX IMVI = system: LOX IMVI
NCI-H460 = system: NCI-H460
MDA-MB-435 = system: MDA-MB-435
HCC 2998 = system: HCC 2998
OVCAR-3 = system: OVCAR-3
M14 = system: M14
SK-MEL-28 = system: SK-MEL-28
ACHN = system: ACHN
HOP-62 = system: HOP-62
COLO 205 = system: COLO 205
MCF7 = system: MCF7
DU-145 = system: DU-145
EKVX = system: EKVX
K562 = system: K562
Malme-3M = system: Malme-3M
SK-MEL-2 = system: SK-MEL-2
HOP-92 = system: HOP-92
CAKI-1 = system: CAKI-1
SK-MEL-5 = system: SK-MEL-5
BT-549 = system: BT-549
PC-3 = system: PC-3
UACC-257 = system: UACC-257
OVCAR-8 = system: OVCAR-8
MDA-N = system: MDA-N
UACC-62 = system: UACC-62
SF-295 = system: SF-295
KM12 = system: KM12
RPMI-8226 = system: RPMI-8226
IGROV-1 = system: IGROV-1
NCI/ADR-RES = system: NCI/ADR-RES
HCT-116 = system: HCT-116
NCI-H226 = system: NCI-H226
786-0 = system: 786-0
OVCAR-5 = system: OVCAR-5
MOLT-4 = system: MOLT-4
SN12C = system: SN12C
CCRF-CEM = system: CCRF-CEM
MDA-MB-231 = system: MDA-MB-231
SNB-75 = system: SNB-75
NCI-H23 = system: NCI-H23
Hs-578T = system: Hs-578T
SK-OV-3 = system: SK-OV-3
UO-31 = system: UO-31
HCT-15 = system: HCT-15
NCI-H522 = system: NCI-H522
SW-620 = system: SW-620
TK-10 = system: TK-10
SR = system: SR
SF-539 = system: SF-539
SNB-19 = system: SNB-19
U-251 = system: U-251
HT-29 = system: HT-29
OVCAR-4 = system: OVCAR-4
HL-60 = system: HL-60
SF-268 = system: SF-268

CCN(CC)P1(=S)Oc2ccc3ccccc3c2-c2c(ccc3ccccc23)O1
GI50 (A498): > 100 µM (inactive) | GI50 (A549): > 100 µM (inactive) | GI50 (T47D): 22.5 µM (inactive) | GI50 (LOX IMVI): > 100 µM (inactive) | GI50 (NCI-H460): > 100 µM (inactive) | GI50 (MDA-MB-435): > 100 µM (inactive) | GI50 (HCC 2998): 77.4 µM (inactive) | GI50 (OVCAR-3): > 100 µM (inactive) | GI50 (M14): > 100 µM (inactive) | GI50 (SK-MEL-28): > 100 µM (inactive) | GI50 (ACHN): 67.3 µM (inactive) | GI50 (HOP-62): > 100 µM (inactive) | GI50 (COLO 205): > 100 µM (inactive) | GI50 (MCF7): > 100 µM (inactive) | GI50 (DU-145): > 100 µM (inactive) | GI50 (EKVX): > 100 µM (inactive) | GI50 (K562): > 100 µM (inactive) | GI50 (Malme-3M): 72.8 µM (inactive) | GI50 (SK-MEL-2): > 100 µM (inactive) | GI50 (HOP-92): > 100 µM (inactive) | GI50 (CAKI-1): > 100 µM (inactive) | GI50 (SK-MEL-5): > 100 µM (inactive) | GI50 (BT-549): > 100 µM (inactive) | GI50 (PC-3): > 100 µM (inactive) | GI50 (UACC-257): > 100 µM (inactive) | GI50 (OVCAR-8): > 100 µM (inactive) | GI50 (MDA-N): 51.2 µM (inactive) | GI50 (UACC-62): > 100 µM (inactive) | GI50 (SF-295): > 100 µM (inactive) | GI50 (KM12): 5 µM (inactive) | GI50 (RPMI-8226): > 100 µM (inactive) | GI50 (IGROV-1): 89.3 µM (inactive) | GI50 (NCI/ADR-RES): > 100 µM (inactive) | GI50 (HCT-116): 83 µM (inactive) | GI50 (NCI-H226): > 100 µM (inactive) | GI50 (786-0): > 100 µM (inactive) | GI50 (OVCAR-5): > 100 µM (inactive) | GI50 (MOLT-4): > 100 µM (inactive) | GI50 (SN12C): > 100 µM (inactive) | GI50 (CCRF-CEM): > 100 µM (inactive) | GI50 (MDA-MB-231): > 100 µM (inactive) | GI50 (SNB-75): 32.2 µM (inactive) | GI50 (NCI-H23): > 100 µM (inactive) | GI50 (Hs-578T): 40.3 µM (inactive) | GI50 (SK-OV-3): > 100 µM (inactive) | GI50 (UO-31): > 100 µM (inactive) | GI50 (HCT-15): 63.4 µM | GI50 (NCI-H522): 60.1 µM (inactive) | GI50 (SW-620): > 100 µM (inactive) | GI50 (TK-10): > 100 µM (inactive) | GI50 (SR): 27.4 µM (inactive) | GI50 (SF-539): > 100 µM (inactive) | GI50 (SNB-19): > 100 µM (inactive) | GI50 (U-251): > 100 µM (inactive) | GI50 (HT-29): 18.5 µM (inactive) | GI50 (OVCAR-4): 99.3 µM (inactive) | GI50 (HL-60): > 100 µM (inactive)

CC(C)C(/N=C/c1ccccc1O)C(=O)O (stereo not drawn)
GI50 (A498): > 100 µM (inactive) | GI50 (A549): > 100 µM (inactive) | GI50 (T47D): > 100 µM (inactive) | GI50 (LOX IMVI): > 100 µM (inactive) | GI50 (NCI-H460): > 100 µM (inactive) | GI50 (MDA-MB-435): > 100 µM (inactive) | GI50 (OVCAR-3): > 100 µM (inactive) | GI50 (M14): > 100 µM (inactive) | GI50 (SK-MEL-28): > 100 µM (inactive) | GI50 (ACHN): > 100 µM (inactive) | GI50 (HOP-62): > 100 µM (inactive) | GI50 (COLO 205): > 100 µM (inactive) | GI50 (MCF7): > 100 µM (inactive) | GI50 (DU-145): > 100 µM (inactive) | GI50 (EKVX): > 100 µM (inactive) | GI50 (K562): > 100 µM (inactive) | GI50 (Malme-3M): 55.3 µM (inactive) | GI50 (SK-MEL-2): 20.6 µM (inactive) | GI50 (HOP-92): > 100 µM (inactive) | GI50 (CAKI-1): > 100 µM (inactive) | GI50 (SK-MEL-5): > 100 µM (inactive) | GI50 (BT-549): > 100 µM (inactive) | GI50 (PC-3): 87.7 µM (inactive) | GI50 (UACC-257): > 100 µM (inactive) | GI50 (OVCAR-8): > 100 µM (inactive) | GI50 (MDA-N): > 100 µM (inactive) | GI50 (UACC-62): > 100 µM (inactive) | GI50 (SF-295): > 100 µM (inactive) | GI50 (KM12): > 100 µM (inactive) | GI50 (RPMI-8226): > 100 µM (inactive) | GI50 (IGROV-1): > 100 µM (inactive) | GI50 (NCI/ADR-RES): > 100 µM (inactive) | GI50 (HCT-116): > 100 µM (inactive) | GI50 (NCI-H226): > 100 µM (inactive) | GI50 (786-0): > 100 µM (inactive) | GI50 (OVCAR-5): > 100 µM (inactive) | GI50 (MOLT-4): > 100 µM (inactive) | GI50 (SN12C): > 100 µM (inactive) | GI50 (CCRF-CEM): > 100 µM (inactive) | GI50 (MDA-MB-231): 87.9 µM (inactive) | GI50 (NCI-H23): > 100 µM (inactive) | GI50 (Hs-578T): 59.2 µM (inactive) | GI50 (SF-268): > 100 µM (inactive) | GI50 (SK-OV-3): > 100 µM (inactive) | GI50 (UO-31): > 100 µM (inactive) | GI50 (HCT-15): > 100 µM | GI50 (NCI-H522): > 100 µM (inactive) | GI50 (SW-620): > 100 µM (inactive) | GI50 (TK-10): > 100 µM (inactive) | GI50 (SR): > 100 µM (inactive) | GI50 (SF-539): > 100 µM (inactive) | GI50 (SNB-19): > 100 µM (inactive) | GI50 (U-251): > 100 µM (inactive) | GI50 (HT-29): > 100 µM (inactive) | GI50 (OVCAR-4): > 100 µM (inactive) | GI50 (HL-60): > 100 µM (inactive)
